Drawing on US20190367516A1 (Bayer Pharma Aktiengesellschaft, priority 2015, published 2019), this text covers EC50 and Emax for 23 compounds.

Each structure is given as a SMILES string.

The first experiment deals with T1, human M2 receptor (Homo sapiens, UniProt P08172).
T1 sequence (P08172 1-466): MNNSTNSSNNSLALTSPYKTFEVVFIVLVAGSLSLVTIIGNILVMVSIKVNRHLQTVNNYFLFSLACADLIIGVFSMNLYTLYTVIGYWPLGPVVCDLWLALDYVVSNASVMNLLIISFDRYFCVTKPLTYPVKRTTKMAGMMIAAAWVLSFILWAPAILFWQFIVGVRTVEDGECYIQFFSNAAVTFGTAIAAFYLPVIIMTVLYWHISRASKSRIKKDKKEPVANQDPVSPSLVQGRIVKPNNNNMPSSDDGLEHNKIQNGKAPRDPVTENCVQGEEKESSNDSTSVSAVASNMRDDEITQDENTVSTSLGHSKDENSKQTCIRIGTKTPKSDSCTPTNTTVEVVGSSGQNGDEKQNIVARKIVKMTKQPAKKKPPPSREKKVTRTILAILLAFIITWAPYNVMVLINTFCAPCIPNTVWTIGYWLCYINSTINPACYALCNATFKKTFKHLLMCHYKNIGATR
Conditions: Receptor activity EC50, M2-GIRK1/4 activation test, acetylcholine at EC20; allosteric potency; in some cases mean values from two or more determinations.
As for `CN(C)c1ccc2c(=O)c(C(=O)NC(c3cccc(F)c3)C(F)(F)F)cn(-c3ccc(F)cc3F)c2n1` (racemic) [Example 140, rac-1-(2,4-Difluorophenyl)-7-(dimethylamino)-4-oxo-N-[2,2,2-trifluoro-1-(3-fluorophenyl)ethyl]-1,4-dihydro-1,8-naphthyridine-3-carboxamide], the EC50 was 68 nM. Take `Cc1ccc(C(NC(=O)c2cn(-c3ccc(F)cc3F)c3nc(N(C)C)ccc3c2=O)C(F)(F)F)cc1` (racemic) [Example 141, rac-1-(2,4-Difluorophenyl)-7-(dimethylamino)-4-oxo-N-[2,2,2-trifluoro-1-(4-methylphenyl)ethyl]-1,4-dihydro-1,8-naphthyridine-3-carboxamide]: the response was half-maximal at 83 nM (EC50). `Cc1ccccc1C(NC(=O)c1cn(-c2ccc(F)cc2F)c2nc(N(C)C)ccc2c1=O)C(F)(F)F` (racemic) [Example 142, rac-1-(2,4-Difluorophenyl)-7-(dimethylamino)-4-oxo-N-[2,2,2-trifluoro-1-(2-methylphenyl)ethyl]-1,4-dihydro-1,8-naphthyridine-3-carboxamide] yielded an EC50 of 110 nM. `CN(C)c1ccc2c(=O)c(C(=O)NC(Cc3ccccc3)C(F)(F)F)cn(-c3ccc(F)cc3F)c2n1` (racemic) [Example 143, rac-1-(2,4-Difluorophenyl)-7-(dimethylamino)-4-oxo-N-(1,1,1-trifluoro-3-phenylpropan-2-yl)-1,4-dihydro-1,8-naphthyridine-3-carboxamide] had an EC50 of 37 nM. The compound `CCCC(NC(=O)c1cn(-c2ccc(F)cc2F)c2nc(N(C)C)ccc2c1=O)C(F)(F)F` (racemic) [Example 144, rac-1-(2,4-Difluorophenyl)-7-(dimethylamino)-4-oxo-N-(1,1,1-trifluoropentan-2-yl)-1,4-dihydro-1,8-naphthyridine-3-carboxamide] yielded an EC50 of 32 nM. Consider `CC(C)CC(NC(=O)c1cn(-c2ccc(F)cc2F)c2nc(N(C)C)ccc2c1=O)C(F)(F)F` (racemic) [Example 145, rac-1-(2,4-Difluorophenyl)-7-(dimethylamino)-4-oxo-N-(1,1,1-trifluoro-4-methylpentan-2-yl)-1,4-dihydro-1,8-naphthyridine-3-carboxamide], for which a half-maximal effect (EC50) was put at 30 nM. The compound `CCC(NC(=O)c1cn(-c2ccc(F)cc2F)c2nc(N(C)C)ccc2c1=O)C(F)(F)F` (racemic) [Example 146, rac-1-(2,4-Difluorophenyl)-7-(dimethylamino)-4-oxo-N-(1,1,1-trifluorobutan-2-yl)-1,4-dihydro-1,8-naphthyridine-3-carboxamide] registered an EC50 of 26 nM. This EC50 and that of the compound before are within 1.5-fold of each other.

Compound `CC(NC(=O)c1cn(-c2ccc(F)cc2F)c2nc(N(C)C)ccc2c1=O)C(F)(F)F` (racemic) [Example 147, rac-1-(2,4-Difluorophenyl)-7-(dimethylamino)-4-oxo-N-(1,1,1-trifluoropropan-2-yl)-1,4-dihydro-1,8-naphthyridine-3-carboxamide] came in with an EC50 of 82 nM. In turn, `CN(C)c1ccc2c(=O)c(C(=O)NC(C3CC3)C(F)(F)F)cn(-c3ccc(F)cc3F)c2n1` (racemic) [Example 148, rac-N-(1-Cyclopropyl-2,2,2-trifluoroethyl)-1-(2,4-difluorophenyl)-7-(dimethylamino)-4-oxo-1,4-dihydro-1,8-naphthyridine-3-carboxamide] gave an EC50 of 41 nM. The same measure, in the same setting: the same measure for `CC(C)C(NC(=O)c1cn(-c2ccc(F)cc2F)c2nc(N(C)C)ccc2c1=O)C(F)(F)F` (racemic) [Example 150, rac-1-(2,4-Difluorophenyl)-7-(dimethylamino)-4-oxo-N-(1,1,1-trifluoro-3-methylbutan-2-yl)-1,4-dihydro-1,8-naphthyridine-3-carboxamide]: 72 nM. The same measure, in the same setting: the same measure for `CC(COC(F)(F)F)NC(=O)c1cn(-c2ccc(F)cc2F)c2nc(N3CCCC3=O)ccc2c1=O` (racemic) [Example 230, rac-1-(2,4-Difluorophenyl)-4-oxo-7-(2-oxopyrrolidin-1-yl)-N-[1-(trifluoromethoxy)propan-2-yl]-1,4-dihydro-1,8-naphthyridine-3-carboxamide]: 203 nM. With `O=C(NC(c1c(F)cccc1F)C(F)(F)F)c1cn(-c2ccc(F)cc2F)c2nc(N3CCC(O)CC3=O)ccc2c1=O` (racemic) [Example 252, rac-1-(2,4-Difluorophenyl)-N-[1-(2,6-difluorophenyl)-2,2,2-trifluoroethyl]-7-[4-hydroxy-2-oxopiperidin-1-yl]-4-oxo-1,4-dihydro-1,8-naphthyridine-3-carboxamide], the EC50 came out at 109 nM. Compared with the last compound, the EC50 is about 1.9-fold lower.

Compound `CC[C@@H](NC(=O)c1cn(-c2c(F)cccc2F)c2nc(N3CC(CO)OC3=O)ccc2c1=O)C(F)(F)F` (mixture of isomers) [Example 260, rac-1-(2,6-Difluorophenyl)-7-[5-(hydroxymethyl)-2-oxo-1,3-oxazolidin-3-yl]-4-oxo-N-[(2R)-1,1,1-trifluorobutan-2-yl]-1,4-dihydro-1,8-naphthyridine-3-carboxamide] displayed an EC50 of 280 nM. The compound `CC[C@@H](NC(=O)c1cn(-c2ccc(F)cc2F)c2nc(N3CCOC(C(F)F)C3)ccc2c1=O)C(F)(F)F` (mixture of isomers) [Example 263, 7-[2-(Difluoromethyl)morpholin-4-yl]-1-(2,4-difluorophenyl)-4-oxo-N-[(2R)-1,1,1-trifluorobutan-2-yl]-1,4-dihydro-1,8-naphthyridine-3-carboxamide] returned an EC50 of 440 nM.

Take `O=C(NC(C1CC1)C(F)(F)F)c1cn(-c2ccc(F)cc2F)c2nc(N3C[C@@H](O)CC3=O)ccc2c1=O` (mixture of isomers) [Example 283]: the EC50 was 40 nM.

Turning to `CC[C@@H](NC(=O)c1cn(-c2c(F)cccc2F)c2nc(N3CCC(O)C3=O)ccc2c1=O)C(F)(F)F` (mixture of isomers) [Example 292, 1-(2,6-Difluorophenyl)-7-[3-hydroxy-2-oxopyrrolidin-1-yl]-4-oxo-N-[(2R)-1,1,1-trifluorobutan-2-yl]-1,4-dihydro-1,8-naphthyridine-3-carboxamide], the EC50 came out at 59 nM. In turn, `C[C@H](NC(=O)c1cn(-c2c(F)cc(F)cc2F)c2nc(N3CC4CC4(O)C3)ccc2c1=O)C(F)(F)F` (mixture of isomers) [Example 316, 7-[1-Hydroxy-3-azabicyclo[3.1.0]hex-3-yl]-4-oxo-1-(2,4,6-trifluorophenyl)-N-[(2S)-1,1,1-trifluoropropan-2-yl]-1,4-dihydro-1,8-naphthyridine-3-carboxamide] showed an EC50 of 28 nM.

`O=C(N[C@H](C1CC1)C(F)(F)F)c1cn(-c2c(F)cccc2F)c2nc(N3CC4CC4(O)C3)ccc2c1=O` (mixture of isomers) [Example 319, N-[(1R)-1-Cyclopropyl-2,2,2-trifluoroethyl]-1-(2,6-difluorophenyl)-7-[1-hydroxy-3-azabicyclo[3.1.0]hex-3-yl]-4-oxo-1,4-dihydro-1,8-naphthyridine-3-carboxamide] came in with an EC50 of 25 nM. For the compound `CC1(O)CCN(c2ccc3c(=O)c(C(=O)NC(C4CC4)C(F)(F)F)cn(-c4c(F)cccc4F)c3n2)C1` (racemic) [Example 326, N-[1-Cyclopropyl-2,2,2-trifluoroethyl]-1-(2,6-difluorophenyl)-7-[3-hydroxy-3-methylpyrrolidin-1-yl]-4-oxo-1,4-dihydro-1,8-naphthyridine-3-carboxamide], the EC50 is 47 nM. This EC50 is about 1.9-fold higher than that of the compound before.

Staying with this experiment, now noted: Receptor activity EC50, allosteric potency at EC20 acetylcholine; M2-GIRK1/4 reporter cells; in some cases mean of two or more determinations.
Compound `CC[C@H](NC(=O)c1cn(-c2c(F)cc(F)cc2Cl)c2nc(N3CC4CC4(O)C3)ccc2c1=O)C(F)(F)F` (mixture of isomers) [Example 413, 1-(2-Chloro-4,6-difluorophenyl)-7-[1-hydroxy-3-azabicyclo[3.1.0]hex-3-yl]-4-oxo-N-[(2S)-1,1,1-trifluorobutan-2-yl]-1,4-dihydro-1,8-naphthyridine-3-carboxamide] returned an EC50 of 10 nM. Consider `O=C(N[C@H](C1CC1)C(F)(F)F)c1cn(-c2c(F)cc(F)cc2Cl)c2nc(N3CC4CC4(O)C3)ccc2c1=O` (mixture of isomers) [Example 415, 1-(2-Chloro-4,6-difluorophenyl)-N-[(1R)-1-cyclopropyl-2,2,2-trifluoroethyl]-7-[1-hydroxy-3-azabicyclo[3.1.0]hex-3-yl]-4-oxo-1,4-dihydro-1,8-naphthyridine-3-carboxamide], for which the EC50 was determined as 6 nM. `CC[C@H](NC(=O)c1cn(-c2c(F)cc(F)cc2F)c2nc(N3CC4CC4(O)C3)ccc2c1=O)C(F)(F)F` (mixture of isomers) [Example 416, 7-[1-Hydroxy-3-azabicyclo[3.1.0]hex-3-yl]-4-oxo-N-[(2S)-1,1,1-trifluorobutan-2-yl]-1-(2,4,6-trifluorophenyl)-1,4-dihydro-1,8-naphthyridine-3-carboxamide]: a half-maximal response (EC50) required 8 nM. In turn, `CC[C@H](NC(=O)c1cn(-c2c(F)cccc2F)c2nc(N3CC4CC4(O)C3)ccc2c1=O)C(F)(F)F` (mixture of isomers) [Example 417, 1-(2,6-Difluorophenyl)-7-[1-hydroxy-3-azabicyclo[3.1.0]hex-3-yl]-4-oxo-N-[(2S)-1,1,1-trifluorobutan-2-yl]-1,4-dihydro-1,8-naphthyridine-3-carboxamide] showed an EC50 of 24 nM. Against the preceding compound, the EC50 is about 3-fold higher.

Staying with this experiment, now noted: read-out: Efficiency.
Consider `CC[C@H](NC(=O)c1cn(-c2c(F)cc(F)cc2F)c2nc(N3CC4CC4(O)C3)ccc2c1=O)C(F)(F)F` (mixture of isomers) [Example 416, 7-[1-Hydroxy-3-azabicyclo[3.1.0]hex-3-yl]-4-oxo-N-[(2S)-1,1,1-trifluorobutan-2-yl]-1-(2,4,6-trifluorophenyl)-1,4-dihydro-1,8-naphthyridine-3-carboxamide], for which the Emax was 92%.

The experiment is the same for the next values; noted with them: read-out: Efficiency, boosting of the acetylcholine effect at EC20 acetylcholine concentration; M2-GIRK1/4 reporter cells.
For `CC[C@H](NC(=O)c1cn(-c2c(F)cc(F)cc2Cl)c2nc(N3CC4CC4(O)C3)ccc2c1=O)C(F)(F)F` (mixture of isomers) [Example 413, 1-(2-Chloro-4,6-difluorophenyl)-7-[1-hydroxy-3-azabicyclo[3.1.0]hex-3-yl]-4-oxo-N-[(2S)-1,1,1-trifluorobutan-2-yl]-1,4-dihydro-1,8-naphthyridine-3-carboxamide], the Emax came to 100%. Consider `O=C(N[C@H](C1CC1)C(F)(F)F)c1cn(-c2c(F)cc(F)cc2Cl)c2nc(N3CC4CC4(O)C3)ccc2c1=O` (mixture of isomers) [Example 415, 1-(2-Chloro-4,6-difluorophenyl)-N-[(1R)-1-cyclopropyl-2,2,2-trifluoroethyl]-7-[1-hydroxy-3-azabicyclo[3.1.0]hex-3-yl]-4-oxo-1,4-dihydro-1,8-naphthyridine-3-carboxamide], for which the Emax turned out to be 96%.

For the compound `CC[C@H](NC(=O)c1cn(-c2c(F)cccc2F)c2nc(N3CC4CC4(O)C3)ccc2c1=O)C(F)(F)F` (mixture of isomers) [Example 417, 1-(2,6-Difluorophenyl)-7-[1-hydroxy-3-azabicyclo[3.1.0]hex-3-yl]-4-oxo-N-[(2S)-1,1,1-trifluorobutan-2-yl]-1,4-dihydro-1,8-naphthyridine-3-carboxamide], the Emax is 100%.
